For experiment [1], the system named is 661W or C6 cells. The experiment is described as follows: MTT assay, protection against calcium-ionophore A23187. It is filed as cell-based. As to conditions: for MTT, % protection: 1 μM A23187, 24 h. As for the experimental part: The compound 3-(4,5-Dimethylthiazol-2-yl)-2,5-diphenyltetrazolium bromide (MTT) is a tetrazolium ion that is reduced to a blue formazan dye via several families of NAD(P)H-dependent oxidoreductases. Formation of the formazan dye from MTT or other related tetrazolium dyes are commonly used as a viability assay even though, in fact, the assay is a metabolic capacity assay.
In this assay, 661W or C6 cells were maintained in DMEM supplemented with 10% FBS. 100 μL of 70,000 cells/mL cells were seeded into each well of 96 well plates using DMEM supplemented with 5% FBS. Cells were then allowed to grow to confluency for 48 hours. The compounds of the invention were added in 2 μL media and calcium-ionophore A23187 was then added in 1 μL for a final concentration of 1 μM and after 24 h, 20 μL of […] MTT were added to each well and the cells were incubated for another 4 h after which 100 μL of 1% SDS in 0.01M aqueous HCl were added to each well and the plates were incubated overnight. Absorbance was measured at […] (background correction). The 1 μM ionophore A23187 caused about 50% loss in MTT signal at 24 h. Protection was calculated as the increase in absorbance of treatment groups normalized to the vehicle control.
On the technique in general: Formazan colour is commonly taken as a measure of viable cells.

Experiment [2] deals with 661W or C6 cells. The experiment is described as follows: XF FCCP-uncoupled oxygen consumption rate assay (IBMX challenge). The format is cell-based. As to conditions: IBMX treatment alone, 600 μM, 24 h. How it is done: The XF FCCP-uncoupled oxygen consumption rate assay assesses mitochondrial capacity by measuring cellular respiration. It was shown that the maximum FCCP-uncoupled oxygen consumption rate (OCR) was a good estimate of maximal mitochondrial capacity (Beeson 2010) and that IBMX treatment of 661W or C6 cells for 24 h caused a loss in maximal uncoupled OCR (Perron 2013). Thus, cells were pretreated with the exemplified compounds for 1 h, added 600 μM IBMX and then measured the uncoupled rate after 24 h. In brief, the OCR measurements were performed using a Seahorse Bioscience XF instrument (Seahorse Bioscience, Billerica, Md.), as previously published (Perron 2013). O2 leakage through the plastic sides and bottom of the plate was accounted for using the AKOS algorithm in the XF software package. Cells were plated on 96- or 24-well custom plates designed for use in the XF and grown to confluency in DMEM+5% FBS (48 h). The medium was then replaced with DMEM+1% FBS for 24 h, along with any treatments.

The structures appear in SMILES notation.

For `CC(C)CN1C(=O)C(O)(CC(=O)c2ccccn2)c2ccccc21` (stereo not drawn) [Example 16, 3-hydroxy-1-isobutyl-3-(2-oxo-2-(pyridin-2-yl)ethyl)indolin-2-one], the “MTT, % protection” value in the experiment with 661W or C6 cells [1] (compound 100 nM) is recorded as 78.7%,.
Same read-out and setting: for `COc1cccc(C(=O)CC2(O)C(=O)N(CC(C)C)c3ccc(C)cc32)n1` (stereo not drawn) [Example 29, 3-hydroxy-1-isobutyl-3-(2-(6-methoxypyridin-2-yl)-2-oxoethyl)-5-methylindolin-2-one] the value was 98.9%,.
In the case of `COc1cccc(CC2(OC(=O)c3ccccc3)C(=O)N(CCC(C)C)c3ccc(Cl)cc32)c1O` (stereo not drawn) [Example 55, 5-chloro-3-(2-hydroxy-3-methoxybenzyl)-1-isopentyl-2-oxoindolin-3-yl benzoate], the “MTT, % protection” value with 661W or C6 cells [1] (compound 1 nM) is recorded as 67.4%,.
Same read-out and setting: in the case of `COc1ccc(CC2(OC(=O)c3ccccc3)C(=O)N(CCc3ccccc3)c3ccc(C)cc32)cc1OC` (stereo not drawn) [Example 44, 3-(3,4-dimethoxybenzyl)-5-methyl-2-oxo-1-phenethylindolin-3-yl benzoate] it was 72%,.
Consider `CCN1C(=O)C(Cc2cc(OC)c(OC)c(OC)c2)(OC(=O)c2ccccc2)c2cc(C)ccc21` (stereo not drawn) [Example 33, 1-ethyl-5-methyl-2-oxo-3-(3,4,5-trimethoxybenzyl)indolin-3-yl benzoate], for which, in the experiment on 661W or C6 cells [1] (compound 100 nM), the “MTT, % protection” value was 50%,.
On to `COc1ccc(O)c(CC2(OC(=O)c3ccccc3)C(=O)N(CC(C)C)c3ccccc32)c1` (stereo not drawn) [Example 54, 3-(2-hydroxy-5-methoxybenzyl)-1-isobutyl-2-oxoindolin-3-yl benzoate], for which the “MTT, % protection” value in the experiment with 661W or C6 cells [1] (compound 800 pM) was 85.8%,.
Take `CCN1C(=O)C(O)(Cc2ncccc2OC)c2cc(C)ccc21` (stereo not drawn) [Example 8, 1-ethyl-3-hydroxy-3-((3-methoxypyridin-2-yl)methyl)-5-methylindolin-2-one]: in the experiment with 661W or C6 cells [1] (compound 1 nM), the “MTT, % protection” value is listed as 65.9%,.
As to `CC(C)Cn1c(=O)n(C)c(=O)c2[nH]cnc21` [IBMX, reference compound], the “decrease in the uncoupled rate (OCR)” value with 661W or C6 cells [2] is reported as around 50%.
For the compound `Cc1ccc2c(c1)C(O)(CC(=O)c1c[nH]c3ccccc13)C(=O)N2CCCN=[N+]=[N-]` (stereo not drawn) [Example 27, 3-(2-(1H-indol-3-yl)-2-oxoethyl)-1-(3-azidopropyl)-3-hydroxy-5-methylindolin-2-one], the “MTT, % protection” value in the experiment on 661W or C6 cells [1] (compound 1 μM) is given as 66%,.
Regarding `CCCN1C(=O)C(Cc2ccc(OC)c(OC)c2)(OC(=O)c2ccccc2)c2cc(C)ccc21` (stereo not drawn) [Example 47, 3-(3,4-dimethoxybenzyl)-5-methyl-2-oxo-1-propylindolin-3-yl benzoate], the “MTT, % protection” value with 661W or C6 cells [1] (compound 1 nM) is on record as 21.8%,.
Turning to `Cc1ccc2c(c1)C(O)(CC(=O)c1c[nH]c3ccccc13)C(=O)N2CCC(C)C` (stereo not drawn) [Example 15, 3-(2-(1H-indol-3-yl)-2-oxoethyl)-3-hydroxy-1-isopentyl-5-methylindolin-2-one], the “MTT, % protection” value in the experiment with 661W or C6 cells [1] (compound 100 nM) was 108.5%,.
Still for that read-out and setting: in the case of `CCN1C(=O)C(O)(CC(=O)c2ccccn2)c2cc(Cl)ccc21` (stereo not drawn) [Example 19, 5-chloro-1-ethyl-3-hydroxy-3-(2-oxo-2-(pyridin-2-yl)ethyl)indolin-2-one] it was 81.8%,.
Regarding `COc1ccc(CC2(O)C(=O)N(CCc3ccccc3)c3ccc(C)cc32)nc1` (stereo not drawn) [Example 11, 3-hydroxy-3-((5-methoxypyridin-2-yl)methyl)-5-methyl-1-phenethylindolin-2-one], the “MTT, % protection” value in the experiment with 661W or C6 cells [1] (compound 1 μM) is recorded as 35.7%,.
The same measure, in the same setting: in the case of `CCN1C(=O)C(O)(Cc2ncccc2OC)c2cc(Cl)ccc21` (stereo not drawn) [Example 7, 5-chloro-1-ethyl-3-hydroxy-3-((3-methoxypyridin-2-yl)methyl)indolin-2-one] it was 43.8%,; in that of `Cc1ccc2c(c1)C(O)(Cc1ncccc1Br)C(=O)N2CCC(C)C` (stereo not drawn) [Example 1, 3-((3-bromopyridin-2-yl)methyl)-3-hydroxy-1-isopentyl-5-methylindolin-2-one], 12%,.
As to `C#Cc1cccc(C(=O)CC2(O)C(=O)N(CCC)c3ccc(Cl)cc32)n1` (stereo not drawn) [Example 14, 5-chloro-3-(2-(6-ethynylpyridine-2-yl)-2-oxoethyl)-3-hydroxy-1-propylindolin-2-one], in the experiment with 661W or C6 cells [1] (compound 100 nM), the “MTT, % protection” value is 69.6%,.
On to `COc1cc(CC2(OC(=O)c3ccccc3)C(=O)N(CC(C)C)c3ccc(C)cc32)cc(OC)c1OC` (stereo not drawn) [Example 36, 1-isobutyl-5-methyl-2-oxo-3-(3,4,5-trimethoxybenzyl)indolin-3-yl benzoate], for which, in the experiment on 661W or C6 cells [1] (compound 100 nM), the “MTT, % protection” value is on record as 86.8%,.
Still for that read-out and setting: for `COc1cccc(C(=O)CC2(O)C(=O)N(CCN3CCCCC3)c3ccc(Cl)cc32)n1` (stereo not drawn) [Example 18, 5-chloro-3-hydroxy-3-(2-(6-methoxypyridin-2-yl)-2-oxoethyl)-1-(2-(piperidin-1-yl)ethyl)indolin-2-one] the value was 68.8%,.
With `CCCN1C(=O)C(O)(Cc2ccc(OC)cn2)c2cc(Cl)ccc21` (stereo not drawn) [Example 5, 5-chloro-3-hydroxy-3-((5-methoxypyridin-2-yl)methyl)-1-propylindolin-2-one], the “MTT, % protection” value with 661W or C6 cells [1] (compound 1 nM) is 39.2%,.
Same read-out and setting: in the case of `CCN1C(=O)C(Cc2cc(OC)ccc2O)(OC(=O)c2ccccc2)c2cc(C)ccc21` (stereo not drawn) [Example 60, 1-ethyl-3-(2-hydroxy-5-methoxybenzyl)-5-methyl-2-oxoindolin-3-yl benzoate] it was 68.7%,.
Turning to `CNc1ccc2oc(C[C@H]3O[C@@]4(CC[C@H]3C)O[C@H]([C@H](C)C(=O)c3ccc[nH]3)[C@H](C)C[C@H]4C)nc2c1C(=O)O` [Example A23187, reference compound], the “loss in MTT signal” value in the experiment with 661W or C6 cells [1] (1 μM ionophore, 24 h) is on record as “about 50%”.
On to `CCN1C(=O)C(O)(Cc2ccccn2)c2cc(Cl)ccc21` (stereo not drawn) [Example 10, 5-chloro-1-ethyl-3-hydroxy-3-(pyridin-2-ylmethyl)indolin-2-one], for which the “MTT, % protection” value in the experiment on 661W or C6 cells [1] (compound 1 nM) was 52.7%,.
For `COc1cc(CC2(OC(=O)c3ccccc3)C(=O)N(CC(C)C)c3ccccc32)cc(OC)c1OC` (stereo not drawn) [Example 49, 1-isobutyl-2-oxo-3-(3,4,5-trimethoxybenzyl)indolin-3-yl benzoate], the “MTT, % protection” value with 661W or C6 cells [1] (compound 800 pM) was 78.3%,.
For the compound `COc1ccc(CC2(OC(=O)c3ccccc3)C(=O)N(CCC(C)C)c3ccccc32)cc1OC` (stereo not drawn) [Example 45, 3-(3,4-dimethoxybenzyl)-1-isopentyl-2-oxoindolin-3-yl benzoate], the “MTT, % protection” value with 661W or C6 cells [1] (compound 1 nM) was 63%,.
On to `CC(C)CN1C(=O)C(O)(CC(=O)c2ccccn2)c2cc(Cl)ccc21` (stereo not drawn) [Example 32, 5-chloro-3-hydroxy-1-isobutyl-3-(2-oxo-2-(pyridin-2-yl)ethyl)indolin-2-one], for which the “MTT, % protection” value in the experiment on 661W or C6 cells [1] (compound 100 nM) is 102%,.
Same read-out and setting: in the case of `CCCN1C(=O)C(Cc2ccc(OC)cc2O)(OC(=O)c2ccccc2)c2ccccc21` (stereo not drawn) [Example 52, 3-(2-hydroxy-4-methoxybenzyl)-2-oxo-1-propylindolin-3-yl benzoate] it was 24%,; in that of `CC(C)CN1C(=O)C(O)(CC(=O)c2c[nH]c3ccccc23)c2ccccc21` (stereo not drawn) [Example 20, 3-(2-(1H-indol-3-yl)-2-oxoethyl)-3-hydroxy-1-isobutylindolin-2-one], 59.5%,.
For `COc1ccc(CC2(OC(=O)c3ccccc3)C(=O)N(CCC(C)C)c3ccc(C)cc32)cc1OC` (stereo not drawn) [Example 46, 3-(3,4-dimethoxybenzyl)-1-isopentyl-5-methyl-2-oxoindolin-3-yl benzoate], the “MTT, % protection” value in the experiment on 661W or C6 cells [1] (compound 1 μM) is listed as 82%,.
`CCCN1C(=O)C(O)(Cc2cn(C(=O)c3ccccc3)c3ccccc23)c2cc(C)ccc21` (stereo not drawn) [Example 64, 3-((1-benzoyl-1H-indol-3-yl)methyl)-3-hydroxy-5-methyl-1-propylindolin-2-one]: the “MTT, % protection” value with 661W or C6 cells [1] (compound 100 nM) was 51.5%,.
`Cc1ccc2c(c1)C(O)(Cc1ccccn1)C(=O)N2CCc1ccccc1` (stereo not drawn) [Example 9, 3-hydroxy-5-methyl-1-phenethyl-3-(pyridin-2-ylmethyl)indolin-2-one]: the “MTT, % protection” value in the experiment on 661W or C6 cells [1] (compound 800 pM) is given as 62.5%,.
`CC(C)CCN1C(=O)C(O)(CC(=O)c2c[nH]c3ccccc23)c2ccccc21` (stereo not drawn) [Example 21, 3-(2-(1H-indol-3-yl)-2-oxoethyl)-3-hydroxy-1-isopentylindolin-2-one]: the “MTT, % protection” value with 661W or C6 cells [1] (compound 100 nM) is recorded as 82.9%,.
For the compound `CCN1C(=O)C(Cc2ccc(OC)cc2O)(OC(=O)c2ccccc2)c2ccccc21` (stereo not drawn) [Example 57, 1-ethyl-3-(2-hydroxy-4-methoxybenzyl)-2-oxoindolin-3-yl benzoate], in the experiment with 661W or C6 cells [1] (compound 800 pM), the “MTT, % protection” value was 71%,.
Regarding `COc1cccc(C(=O)CC2(O)C(=O)N(CC(C)C)c3ccc(Cl)cc32)n1` (stereo not drawn) [Example 17, 5-chloro-3-hydroxy-1-isobutyl-3-(2-(6-methoxypyridin-2-yl)-2-oxoethyl)indolin-2-one], the “MTT, % protection” value in the experiment on 661W or C6 cells [1] (compound 100 nM) is 111%,.

Values taken from patent US9079853B2, “Isatin compounds, compositions and methods for treatment of degenerative diseases and disorders” (MUSC FOUNDATION FOR RESEARCH DEVELOPMENT, priority 2013, dated 2015).
